According to PubChem BioAssay (NCI):
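Here, GI50 denotes the concentration required for 50% inhibition of growth. TGI: total growth inhibition.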

Tests used:
Assay in all cases: NCI-60 cell line screen, 384-well format
DU-145 prostate = system: DU-145 prostate
SNB-75 CNS = system: SNB-75 CNS
MOLT-4 leukemia = system: MOLT-4 leukemia
HCT-15 colon = system: HCT-15 colon
MDA-MB-468 breast = system: MDA-MB-468 breast
SR leukemia = system: SR leukemia
HOP-62 NSCLC = system: HOP-62 NSCLC
TK-10 renal = system: TK-10 renal
CAKI-1 renal = system: CAKI-1 renal
MDA-MB-435 melanoma = system: MDA-MB-435 melanoma
MDA-MB-231 breast = system: MDA-MB-231 breast
HCT-116 colon = system: HCT-116 colon
SK-OV-3 ovarian = system: SK-OV-3 ovarian
PC-3 prostate = system: PC-3 prostate
MCF7 breast = system: MCF7 breast
OVCAR-3 ovarian = system: OVCAR-3 ovarian
786-0 renal = system: 786-0 renal
LOX IMVI melanoma = system: LOX IMVI melanoma
NCI-H226 lung = system: NCI-H226 lung
CCRF-CEM leukemia = system: CCRF-CEM leukemia
SF-539 CNS = system: SF-539 CNS
SW-620 colon = system: SW-620 colon
NCI-H522 lung = system: NCI-H522 lung
SF-268 CNS = system: SF-268 CNS
SN12C renal = system: SN12C renal
EKVX NSCLC = system: EKVX NSCLC
A498 renal = system: A498 renal
K-562 leukemia = system: K-562 leukemia
NCI-H460 NSCLC = system: NCI-H460 NSCLC

Work on O=C(Nc1cc(F)c(F)cc1C(=O)O)c1ccc(-n2ccnc2)nn1 yielded a GI50 (DU-145 prostate) greater than 100 µM, a TGI (DU-145 prostate) greater than 100 µM and a GI50 (SNB-75 CNS) greater than 100 µM. For the same compound, the TGI (SNB-75 CNS) was greater than 100 µM, the GI50 (MOLT-4 leukemia) was greater than 100 µM and the TGI (MOLT-4 leukemia) was greater than 100 µM. It also gave a GI50 (HCT-15 colon) greater than 100 µM, a TGI (HCT-15 colon) greater than 100 µM and a GI50 (MDA-MB-468 breast) of 29.2 µM. For the same compound, the TGI (MDA-MB-468 breast) was greater than 100 µM, the GI50 (SR leukemia) was 23.3 µM and the TGI (SR leukemia) was 49.7 µM. It also gave a GI50 (HOP-62 NSCLC) greater than 100 µM, a TGI (HOP-62 NSCLC) greater than 100 µM and a GI50 (TK-10 renal) greater than 100 µM. For the same compound, the TGI (TK-10 renal) was greater than 100 µM, the GI50 (CAKI-1 renal) was greater than 100 µM and the TGI (CAKI-1 renal) was greater than 100 µM. For the same compound, the GI50 (MDA-MB-435 melanoma) was greater than 100 µM, the TGI (MDA-MB-435 melanoma) was greater than 100 µM and the GI50 (MDA-MB-231 breast) was greater than 100 µM. The TGI (MDA-MB-231 breast) was greater than 100 µM, the GI50 (HCT-116 colon) was greater than 100 µM and the TGI (HCT-116 colon) was greater than 100 µM. It also gave a GI50 (SK-OV-3 ovarian) greater than 100 µM, a TGI (SK-OV-3 ovarian) greater than 100 µM and a GI50 (PC-3 prostate) greater than 100 µM. It also gave a TGI (PC-3 prostate) greater than 100 µM, a GI50 (MCF7 breast) greater than 100 µM and a TGI (MCF7 breast) greater than 100 µM. The GI50 (OVCAR-3 ovarian) was greater than 100 µM, the TGI (OVCAR-3 ovarian) was greater than 100 µM and the GI50 ([…]-0 renal) was greater than 100 µM. It also gave a TGI (786-0 renal) greater than 100 µM, a GI50 (LOX IMVI melanoma) greater than 100 µM and a TGI (LOX IMVI melanoma) greater than 100 µM. It also gave a GI50 (NCI-H226 lung) greater than 100 µM, a TGI (NCI-H226 lung) greater than 100 µM and a GI50 (CCRF-CEM leukemia) greater than 100 µM. The TGI (CCRF-CEM leukemia) was greater than 100 µM, the GI50 (SF-539 CNS) was greater than 100 µM and the TGI (SF-539 CNS) was greater than 100 µM. It also gave a GI50 (SW-620 colon) greater than 100 µM, a TGI (SW-620 colon) greater than 100 µM and a GI50 (NCI-H522 lung) of 65.1 µM. The TGI (NCI-H522 lung) was greater than 100 µM, the GI50 (SF-268 CNS) was greater than 100 µM and the TGI (SF-268 CNS) was greater than 100 µM. The GI50 (SN12C renal) was greater than 100 µM, the TGI (SN12C renal) was greater than 100 µM and the GI50 (EKVX NSCLC) was greater than 100 µM. The TGI (EKVX NSCLC) was greater than 100 µM, the GI50 (A498 renal) was greater than 100 µM and the TGI (A498 renal) was greater than 100 µM. It also gave a GI50 (K-562 leukemia) of 50.6 µM, a TGI (K-562 leukemia) greater than 100 µM and a GI50 (NCI-H460 NSCLC) greater than 100 µM. For the same compound, the TGI (NCI-H460 NSCLC) was greater than 100 µM.
